From the NIST ThermoML archive (doi:10.1016/j.tca.2010.04.025)

Tests used:
[1] = 101 kPa, Liquid; for speed of sound: Linear variable-path acoustic interferometer; for mass density: Pycnometric method
[2] = xn = mol fraction of the nth substance listed; details: 101 kPa, Liquid; for speed of sound: Linear variable-path acoustic interferometer; for mass density: Pycnometric method

CCNc1ccccc1 [N-ethylaminobenzene]
[1]
Details | mass density [kg/m3] | speed of sound [m/s]
303.15 K | 951.9 | 1497
313.15 K | 944.3 | 1462
323.15 K | 935.9 | 1431

CCNc1ccccc1 [N-ethylaminobenzene] + C1CCOC1
[2]
Details | mass density, 303.15 K [kg/m3] | mass density, 313.15 K [kg/m3] | mass density, 323.15 K [kg/m3] | speed of sound, 303.15 K [m/s] | speed of sound, 313.15 K [m/s] | speed of sound, 323.15 K [m/s]
x2 = 0 | 951.9 | 944.3 | 935.9 | 1497 | 1462 | 1431
x2 = 0.0904 | 947.8 | 940.8 | 932.8 | 1482 | 1450 | 1420
x2 = 0.1892 | 943.8 | 936.7 | 929.1 | 1469 | 1435 | 1404
x2 = 0.2849 | 939.5 | 932.4 | 925.2 | 1452 | 1418 | 1388
x2 = 0.3819 | 934.5 | 927.6 | 920.6 | 1433 | 1399 | 1367
x2 = 0.4674 | 929.3 | 922.6 | 915.7 | 1414 | 1379 | 1346
x2 = 0.5758 | 921.9 | 915.2 | 908.1 | 1387 | 1351 | 1317
x2 = 0.6778 | 913.1 | 906.4 | 899.5 | 1360 | 1323 | 1286
x2 = 0.7876 | 902.1 | 895.4 | 887.7 | 1326 | 1287 | 1250
x2 = 0.8903 | 890.8 | 882.8 | 874.2 | 1291 | 1251 | 1215

CNc1ccccc1 [N-methylaniline]
[1]
Details | mass density [kg/m3] | speed of sound [m/s]
303.15 K | 978.2 | 1548
313.15 K | 969.8 | 1512
323.15 K | 961 | 1477

CNc1ccccc1 [N-methylaniline] + C1CCOC1
[2]
Details | mass density, 303.15 K [kg/m3] | mass density, 313.15 K [kg/m3] | mass density, 323.15 K [kg/m3] | speed of sound, 303.15 K [m/s] | speed of sound, 313.15 K [m/s] | speed of sound, 323.15 K [m/s]
x2 = 0 | 978.2 | 969.8 | 961 | 1548 | 1512 | 1477
x2 = 0.0831 | 973.1 | 964.9 | 956.6 | 1528 | 1493 | 1459
x2 = 0.1864 | 966 | 958.3 | 949.9 | 1502 | 1466 | 1433
x2 = 0.2813 | 959.1 | 951.4 | 943.4 | 1478 | 1442 | 1407
x2 = 0.3782 | 951.5 | 944 | 935.8 | 1453 | 1416 | 1381
x2 = 0.4714 | 943.5 | 936 | 927.4 | 1428 | 1390 | 1354
x2 = 0.5746 | 933.2 | 926 | 916.9 | 1396 | 1358 | 1322
x2 = 0.6956 | 919.4 | 912.2 | 902.6 | 1357 | 1318 | 1282
x2 = 0.7823 | 908.2 | 900.8 | 891.1 | 1329 | 1289 | 1252
x2 = 0.8882 | 893.4 | 885.7 | 875.8 | 1293 | 1252 | 1213
